Laboratory results taken from PubChem BioAssay AID1963870 (Molecular Pharmacology Branch, DTP, NCI, 2024).

Tested on: 292921-168-R-J2-PDC KRAS tumor spheroid viability
Test: Anticancer human tumor 292921-168-R-J2-PDC patient-derived pancreatic carcinoma cell line growth inhibition [KRAS2]
Details: spheroids with HUVEC and MSC; for viability, T/C: stronger effect = lower value
How it was run: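 KRAS-mutant tumor cells were grown as spheroids with HUVEC endothelial cells and human MSCs as stroma. Targeted agents were tested alone and with KRAS pathway inhibitors. Doses started at or near clinical Cmax, or 10 microM, descending half-log.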

[1] = curve of first compound, second compound 0.1 µM
[2] = curve of first compound, second compound 0.316 µM
[3] = curve of first compound, second compound 1 µM
[4] = curve of first compound, second compound 3.16 µM
[5] = curve of first compound, second compound 10 µM
[6] = second compound 0.1 µM, first compound 0.0316 µM
[7] = second compound 0.1 µM, first compound 0.1 µM
[8] = second compound 0.1 µM, first compound 0.316 µM
[9] = second compound 0.1 µM, first compound 1 µM
[10] = second compound 0.1 µM, first compound 3.16 µM
[11] = second compound 0.1 µM, first compound 10 µM
[12] = second compound 0.316 µM, first compound 0.0316 µM
[13] = second compound 0.316 µM, first compound 0.1 µM
[14] = second compound 0.316 µM, first compound 0.316 µM
[15] = second compound 0.316 µM, first compound 1 µM
[16] = second compound 0.316 µM, first compound 3.16 µM
[17] = second compound 0.316 µM, first compound 10 µM
[18] = second compound 1 µM, first compound 0.0316 µM
[19] = second compound 1 µM, first compound 0.1 µM
[20] = second compound 1 µM, first compound 0.316 µM
[21] = second compound 1 µM, first compound 1 µM
[22] = second compound 1 µM, first compound 3.16 µM
[23] = second compound 1 µM, first compound 10 µM
[24] = second compound 3.16 µM, first compound 0.0316 µM
[25] = second compound 3.16 µM, first compound 0.1 µM
[26] = second compound 3.16 µM, first compound 0.316 µM
[27] = second compound 3.16 µM, first compound 1 µM
[28] = second compound 3.16 µM, first compound 3.16 µM
[29] = second compound 3.16 µM, first compound 10 µM
[30] = second compound 10 µM, first compound 0.0316 µM
[31] = second compound 10 µM, first compound 0.1 µM
[32] = second compound 10 µM, first compound 0.316 µM
[33] = second compound 10 µM, first compound 1 µM
[34] = second compound 10 µM, first compound 3.16 µM
[35] = second compound 10 µM, first compound 10 µM
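Also: drug exposure lasted seven days after spheroids formed for three days.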
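For viability, T/C in this document: percent of DMSO vehicle control viability which is 100%.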

Structure (SMILES) | IC50 [1] [nM] | IC50 [2] [nM] | IC50 [3] [nM] | IC50 [4] [nM] | IC50 [5] [nM] | viability, T/C [6] [%] | viability, T/C [7] [%] | viability, T/C [8] [%] | viability, T/C [9] [%] | viability, T/C [10] [%] | viability, T/C [11] [%] | viability, T/C [12] [%] | viability, T/C [13] [%] | viability, T/C [14] [%] | viability, T/C [18] [%] | viability, T/C [19] [%] | viability, T/C [24] [%] | viability, T/C [25] [%] | viability, T/C [30] [%] | viability, T/C [31] [%] | also measured
CC(C)NCC(C(=O)N1CCN(c2ncnc3c2C(C)CC3O)CC1)c1ccc(Cl)cc1 (configuration not stated) + CC1OCC2(CCN(c3cnc(Sc4ccnc(N)c4Cl)c(N)n3)CC2)C1N | 5030 | 3620 | < 31.6 | < 31.6 | < 31.6 | 67.3 | 65.3 | 65 | 67 | 58 | 36.8 | 51.1 | 57 | 56.8 | 46.2 | 42.9 | 36.1 | 36.5 | 33.6 | 33.8 | viability, T/C [15]: 55.7%; viability, T/C [16]: 52.3%; viability, T/C [17]: 31.1%; viability, T/C [20]: 48.1%; viability, T/C [21]: 46.1%; viability, T/C [22]: 39.3%; viability, T/C [23]: 25.9%; viability, T/C [26]: 39.9%; viability, T/C [27]: 41.7%; viability, T/C [28]: 37.4%; viability, T/C [29]: 22.7%; viability, T/C [32]: 39.4%; viability, T/C [33]: 33.8%; viability, T/C [34]: 32.9%; viability, T/C [35]: 20.6%
Cn1ncnc1[C@H]1c2n[nH]c(=O)c3cc(F)cc(c23)N[C@@H]1c1ccc(F)cc1 + C=CC(=O)N1CCN(c2nc(=O)n(-c3c(C)ccnc3C(C)C)c3nc(-c4c(O)cccc4F)c(F)cc23)C(C)C1 | > 100 | > 100 | > 100 | 89.7 | < 0.316 | 87.5 | 78.5 |  |  |  |  | 97.7 | 88.4 |  | 83.2 | 73.3 | 54.3 | 49.2 | 21.3 | 18.6 | viability, T/C (second compound 0.1 µM, first compound 0.000316 µM): 103%; viability, T/C (second compound 0.1 µM, first compound 0.001 µM): 104%; viability, T/C (second compound 0.1 µM, first compound 0.00316 µM): 105%; viability, T/C (second compound 0.1 µM, first compound 0.01 µM): 103%; viability, T/C (second compound 0.316 µM, first compound 0.000316 µM): 113%; viability, T/C (second compound 0.316 µM, first compound 0.001 µM): 109%; viability, T/C (second compound 0.316 µM, first compound 0.00316 µM): 105%; viability, T/C (second compound 0.316 µM, first compound 0.01 µM): 97.6%; viability, T/C (second compound 1 µM, first compound 0.000316 µM): 106%; viability, T/C (second compound 1 µM, first compound 0.001 µM): 97.3%; viability, T/C (second compound 1 µM, first compound 0.00316 µM): 94.9%; viability, T/C (second compound 1 µM, first compound 0.01 µM): 94.8%; viability, T/C (second compound 3.16 µM, first compound 0.000316 µM): 74.3%; viability, T/C (second compound 3.16 µM, first compound 0.001 µM): 64.2%; viability, T/C (second compound 3.16 µM, first compound 0.00316 µM): 65.1%; viability, T/C (second compound 3.16 µM, first compound 0.01 µM): 65.3%; viability, T/C (second compound 10 µM, first compound 0.000316 µM): 18.7%; viability, T/C (second compound 10 µM, first compound 0.001 µM): 20.8%; viability, T/C (second compound 10 µM, first compound 0.00316 µM): 20.6%; viability, T/C (second compound 10 µM, first compound 0.01 µM): 21.9%
O=C(c1cc(Cc2n[nH]c(=O)c3ccccc23)ccc1F)N1CCN(C(=O)C2CC2)CC1 + CNCc1ccccc1-c1csc(C(C)Nc2nc(C)nc3cc(OC)c(OC)cc23)c1 | 6100 | 5510 | 4920 | < 31.6 | < 31.6 | 98 | 109 | 99.2 | 87.6 | 61.2 | 41.6 | 88.7 | 79 | 76.8 | 83.5 | 68.3 | 0.14 | 0.13 | 0.33 | 0.1 | viability, T/C [15]: 74%; viability, T/C [16]: 62.3%; viability, T/C [17]: 37.6%; viability, T/C [20]: 69.9%; viability, T/C [21]: 70.1%; viability, T/C [22]: 52.3%; viability, T/C [23]: 42.4%; viability, T/C [26]: 0.11%; viability, T/C [27]: 0.1%; viability, T/C [28]: 0.1%; viability, T/C [29]: 0.17%; viability, T/C [32]: 0.1%; viability, T/C [33]: 0.11%; viability, T/C [34]: 0.11%; viability, T/C [35]: 0.19%
C=CC(=O)N1CCN(c2nc(=O)n(-c3c(C)ccnc3C(C)C)c3nc(-c4c(O)cccc4F)c(F)cc23)C(C)C1 (configuration not stated) |  |  |  |  |  |  |  |  |  |  |  |  |  |  |  |  |  |  |  |  | IC50 (compound alone, run of 08/26/2021): 5.55 µM [middle of 5 runs]; IC50 (compound alone, run of 09/02/2021): 5.47 µM [middle of 6 runs]
